Source: patent US6946452B2, “Use of N-acetyl-D-glucosamine in the manufacture of pharmaceutical useful for treating motion sickness” (Third Military Medical University Chinese People's …, priority 2001, dated 2005)

Legend:
Proteus Mirabilis = experiment: Promoting wave test (bacterial bio-wave growth model); type: cell-based; conditions: final concentration of 0.5% on LB plate, 37° C., compared with control
Description: I. Promoting Wave Test of N-acetyl-D-glucosamine
1. Experimental Materials and Method:
1.1 Samples: Pure Compound of Formula (I)
1.2 Experimental Materials: • Strain: Proteus Mirabilis (which should comply with the following biological reaction characteristics: dynamics (+), urease (+), lactose (−), glucose (+), H2S (−), phenylalanine deaminase (+). • Culture medium: modified LB culture medium (the components of the composition are: trytones of 1%, yeast extract of 0.5%, sodium chloride 1%, glucose of 0.1%, TTC of 0.002% and pH=7.2˜7.4).
2. Experimental Results and Evaluation: • The experiment adopts a bio-wave model which is used to research the promoting wave function of N-acetyl-D-glucosamine. […] II. Toxicological Test of the Compound of Formula (I), including: […]

[1] = in vivo
[2] = in vivo; remark: listed apart in the source
Description: 1. acute toxicity test: including tests of administrating medicine by oral, Intravenous injection and maximum limit amount for administration;
III. Observation of Curative Efficiency.

motion sickness = experiment: Observation of curative efficiency in patients suffering from motion sickness; type: in vivo; conditions: for Not effective (number of persons) / Effective (number of persons): 20 persons; for Effective (number of persons): 100 km by car and by small steamboat
Protocol: 80 patients suffering from motion sickness were selected and randomly divided into four groups: a group to whom N-acetyl-D-glucosamine was administered in a long term (800 mg of NAG/person/day), a group to whom N-acetyl-D-glucosamine was administered in a short term (6000 mg of NAG/person/day), placebo group (6000 mg of glucose/person/day), a group to whom no medicament was administered. A double blind method was adopted, observing the curative efficiency for traveling 100 kilometers by car (its velocity was 20 kilometers/hour) and traveling 100 kilometers by a small steamboat. Compared with the situation before traveling by car, the following symptoms being relieved or removed will be judged to be effective: dizziness, nausea and vomiting.

[3] = long term group, 800 mg of NAG/person/day
[4] = short term group, 6000 mg of NAG/person/day

**Q.** What does the source list for CC(=O)N[C@H]1C(O)O[C@H](CO)[C@@H](O)[C@@H]1O (stereo partly drawn) [N-acetyl-D-glucosamine]?
**A.** promoting wave function (concentric ring pattern on LB plate) (Proteus Mirabilis): many fine waves on each ring emerged; maximum dosage with no toxicosis reaction [1]: 1 g/kg; dosage at which acute toxicosis reaction had not appeared [2]: more than 2 g/kg; Not effective (number of persons) (motion sickness; [3]): 2; Effective (number of persons) (motion sickness; [3]): 18; effectivity of preventing and treating motion sickness (motion sickness; p<0.05 vs placebo group and no-administration group): more than 90%; Not effective (number of persons) (motion sickness; [4]): 1; Effective (number of persons) (motion sickness; [4]): 19
